Laboratory results from US7915050B2, “Regulatory genes for plant differentiation and growth, and use of the same” (National University Corporation Nagoya University, priority 2005, dated 2011).

Key:
[1] = tested on: GA-deficient Arabidopsis mutant ga1-3 seeds; assay: Germination of GA-deficient ga1-3 seeds; format: in vivo
Description: The germination of GA-deficient gal-3 seeds in a medium containing 16,17-dihydro-GA4 was tested, according to the method of Yamaguchi et al. (Plant Cell, 10, 2115-2126, […]). Approximately 70 to 80 seeds were used per each dish. Three independent measurements were carried, and the standard deviation (SD) was determined from these measurements. The seeds were assessed for germination at 23° C. on day 4, after cold treatment at 4° C. for 3 days. GA4 was used as a reference.

GID1 = target: T1, GID1 (Oryza sativa subsp. japonica, UniProt Q6L545); assay: Saturation/Scatchard and association/dissociation analysis of GA binding to recombinant GID1; design: species or system rice; conditions: Scatchard plot analysis
T1 construct: GST (tag of vector pGEX-4T) (N); made in house
T1 sequence (Q6L545 whole entry): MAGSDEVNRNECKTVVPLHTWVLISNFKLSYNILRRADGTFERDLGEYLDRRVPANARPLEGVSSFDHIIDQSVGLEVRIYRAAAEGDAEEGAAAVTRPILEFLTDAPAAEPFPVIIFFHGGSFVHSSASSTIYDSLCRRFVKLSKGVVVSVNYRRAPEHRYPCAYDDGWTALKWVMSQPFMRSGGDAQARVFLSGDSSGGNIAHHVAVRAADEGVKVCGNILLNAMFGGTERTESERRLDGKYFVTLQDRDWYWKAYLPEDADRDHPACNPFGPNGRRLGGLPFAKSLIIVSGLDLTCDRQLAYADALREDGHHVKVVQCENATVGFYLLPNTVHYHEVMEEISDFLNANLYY
Description: Panel a) depicts the saturability for the GA binding of GID1. […] Bar represents the standard deviation (n=3). Panel b) depicts the results of a Scatchard plot for the data of binding shown in a. The Kd value was calculated (correlation coefficient R^2=0.96) from t three independent experimental results. Panel c) depicts the ^3H-GA association/dissociation rate to GID1. […] Bar represents the standard deviation (n=3). […] Upper panel, none of three recombinant proteins of mutant GID1s (GID1-1, 1-2, and 1-3) corresponding to the three gid1 alleles interacted with GA4. […] Bar represents the standard deviation (n=3). Bottom panel, Coomassie brilliant blue stain of the recombinant proteins used in this experiment. Dot represents GID or tag proteins in the SDS-PAGE profile. In this experiment, almost equal amounts of proteins were used for each (80 pmol). Panel e) depicts the gross morphologies of a GID1-overexpressing plant (Actin1 promoter-GID1, right) and wild type plant (control, left) three months after seeding. Bar=50 cm. f) dose-dependent GA response in the elongation of the second leaf sheath of GID1overexpressing plant (closed triangle) and wild type (closed circle). Bar represents the standard deviation (n=5).
In the gibberellin-binding assay, [1,2,16,17-^3H4]16,17-dihydro-GA4 was used as a labeled GA4. In vitro GA-binding assays were carried out using previous methods with some modifications (Nakajima, M. et al., Biochem. Biophys. Res. Comm. 241, 782-786 (1997)). […] The eluate of the binding buffer (0.6 ml) was discarded, the subsequent eluate (0.2 ml) was collected, and the radioactivity was measured. The specific binding activity, reflecting the number of displaceable GA binding sites, was calculated by subtracting the amount of nonspecific binding from the amount of total binding. […]
Next, the kinetics of the binding of GID1 to GA was analyzed. To calculate the Kd value of GID1 to GA, the saturability of GA binding was measured using various concentrations of GA4 derivative (FIG. 4a). […]

For `CC1C[C@]23C[C@H]1CCC2[C@]12CC[C@H](O)[C@](C)(C(=O)O1)[C@H]2[C@@H]3C(=O)O` (some centres unmarked) [H2-GA4, 16,17-dihydro-GA4], the “physiological effect on germination relative to GA4” value [1] was “about 1/10” and the Kd (GID1) was 1400 nM.
